# PubChem BioAssay (NCI)
#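 Cultured in 96-well plates, cells were exposed to test compound for 48 hours across five concentrations. TGI denotes the concentration required for complete inhibition of growth.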
# Columns and labels:
# Experiment in all cases: inhibition of tumour cell growth, NCI panel, 48 h
# RXF 393 renal = system: RXF 393 renal
# IGROV1 ovarian = system: IGROV1 ovarian
# NCI-H460 lung = system: NCI-H460 lung
# SK-MEL-5 melanoma = system: SK-MEL-5 melanoma
# HOP-92 NSCLC = system: HOP-92 NSCLC
# KM12 colon = system: KM12 colon
# TK-10 renal = system: TK-10 renal
# SF-295 CNS = system: SF-295 CNS
# DLD-1 colon = system: DLD-1 colon
# EKVX NSCLC = system: EKVX NSCLC
# NCI-H522 lung = system: NCI-H522 lung
# HT29 colon = system: HT29 colon
# SW-620 colon = system: SW-620 colon
# A549 NSCLC = system: A549 NSCLC
# K-562 leukemia = system: K-562 leukemia
# SF-268 CNS = system: SF-268 CNS
# NCI-H23 lung = system: NCI-H23 lung
# SK-OV-3 ovarian = system: SK-OV-3 ovarian
# SNB-78 CNS = system: SNB-78 CNS
# DMS 273 small cell lung = system: DMS 273 small cell lung
# COLO 205 colon = system: COLO 205 colon
# OVCAR-4 ovarian = system: OVCAR-4 ovarian
# M19-MEL melanoma = system: M19-MEL melanoma
# HL-60(TB) leukemia = system: HL-60(TB) leukemia
# SN12C renal = system: SN12C renal
# MOLT-4 leukemia = system: MOLT-4 leukemia
# HCC-2998 colon = system: HCC-2998 colon
# SF-539 CNS = system: SF-539 CNS
# A498 renal = system: A498 renal
# SR leukemia = system: SR leukemia
# RXF-631 renal = system: RXF-631 renal
# OVCAR-3 ovarian = system: OVCAR-3 ovarian
# SK-MEL-28 melanoma = system: SK-MEL-28 melanoma
# SK-MEL-2 melanoma = system: SK-MEL-2 melanoma
# LXFL 529 NSCLC = system: LXFL 529 NSCLC
# HCT-116 colon = system: HCT-116 colon
# UACC-257 melanoma = system: UACC-257 melanoma
# ACHN renal = system: ACHN renal
# CAKI-1 renal = system: CAKI-1 renal
# UACC-62 melanoma = system: UACC-62 melanoma
# CCRF-CEM leukemia = system: CCRF-CEM leukemia
# LOX IMVI melanoma = system: LOX IMVI melanoma
# HOP-62 NSCLC = system: HOP-62 NSCLC
# DMS 114 small cell lung = system: DMS 114 small cell lung
# XF 498 CNS = system: XF 498 CNS
# U251 CNS = system: U251 CNS
# SNB-75 CNS = system: SNB-75 CNS
# M14 melanoma = system: M14 melanoma
# MALME-3M melanoma = system: MALME-3M melanoma
# 786-0 renal = system: 786-0 renal
# OVCAR-8 ovarian = system: OVCAR-8 ovarian
# KM20L2 colon = system: KM20L2 colon
# NCI-H226 lung = system: NCI-H226 lung
# RPMI-8226 leukemia = system: RPMI-8226 leukemia
# SNB-19 CNS = system: SNB-19 CNS
# UO-31 renal = system: UO-31 renal
# HOP-18 NSCLC = system: HOP-18 NSCLC
# OVCAR-5 ovarian = system: OVCAR-5 ovarian
# HCT-15 colon = system: HCT-15 colon
smiles,measurement,setting,value
Cc1cccc(/C=N/N=C(\N)NO)n1,TGI,RXF 393 renal,> 100 µM
same,TGI,IGROV1 ovarian,> 100 µM
same,TGI,NCI-H460 lung,> 100 µM
same,TGI,SK-MEL-5 melanoma,> 100 µM
same,TGI,HOP-92 NSCLC,98.3 µM
same,TGI,KM12 colon,> 100 µM
same,TGI,TK-10 renal,> 100 µM
same,TGI,SF-295 CNS,> 100 µM
same,TGI,DLD-1 colon,> 100 µM
same,TGI,EKVX NSCLC,> 100 µM
same,TGI,NCI-H522 lung,> 100 µM
same,TGI,HT29 colon,> 100 µM
same,TGI,SW-620 colon,> 100 µM
same,TGI,A549 NSCLC,> 100 µM
same,TGI,K-562 leukemia,> 100 µM
same,TGI,SF-268 CNS,> 100 µM
same,TGI,NCI-H23 lung,> 100 µM
same,TGI,SK-OV-3 ovarian,> 100 µM
same,TGI,SNB-78 CNS,> 100 µM
same,TGI,DMS 273 small cell lung,> 100 µM
same,TGI,COLO 205 colon,> 100 µM
same,TGI,OVCAR-4 ovarian,> 100 µM
same,TGI,M19-MEL melanoma,> 100 µM
same,TGI,HL-60(TB) leukemia,> 100 µM
same,TGI,SN12C renal,> 100 µM
same,TGI,MOLT-4 leukemia,> 100 µM
same,TGI,HCC-2998 colon,> 100 µM
same,TGI,SF-539 CNS,> 100 µM
same,TGI,A498 renal,> 100 µM
same,TGI,SR leukemia,> 100 µM
same,TGI,RXF-631 renal,> 100 µM
same,TGI,OVCAR-3 ovarian,> 100 µM
same,TGI,SK-MEL-28 melanoma,> 100 µM
same,TGI,SK-MEL-2 melanoma,> 100 µM
same,TGI,LXFL 529 NSCLC,53.1 µM
same,TGI,HCT-116 colon,> 100 µM
same,TGI,UACC-257 melanoma,> 100 µM
same,TGI,ACHN renal,> 100 µM
same,TGI,CAKI-1 renal,> 100 µM
same,TGI,UACC-62 melanoma,8.83 µM
same,TGI,CCRF-CEM leukemia,> 100 µM
same,TGI,LOX IMVI melanoma,52.8 µM
same,TGI,HOP-62 NSCLC,> 100 µM
same,TGI,DMS 114 small cell lung,> 100 µM
same,TGI,XF 498 CNS,> 100 µM
same,TGI,U251 CNS,> 100 µM
same,TGI,SNB-75 CNS,80.8 µM
same,TGI,M14 melanoma,> 100 µM
same,TGI,MALME-3M melanoma,> 100 µM
same,TGI,786-0 renal,> 100 µM
same,TGI,OVCAR-8 ovarian,> 100 µM
N#CCc1ccccc1/C(C#N)=C1/OC(=N)C(c2ccccc2CC#N)C1=O (centres undefined),TGI,IGROV1 ovarian,> 100 µM
same,TGI,SK-MEL-5 melanoma,> 100 µM
same,TGI,KM20L2 colon,> 100 µM
same,TGI,HOP-92 NSCLC,> 100 µM
same,TGI,KM12 colon,> 100 µM
same,TGI,TK-10 renal,> 100 µM
same,TGI,SF-295 CNS,> 100 µM
same,TGI,EKVX NSCLC,> 100 µM
same,TGI,NCI-H522 lung,> 100 µM
same,TGI,HT29 colon,> 100 µM
same,TGI,SW-620 colon,> 100 µM
same,TGI,A549 NSCLC,> 100 µM
same,TGI,K-562 leukemia,> 100 µM
same,TGI,SF-268 CNS,> 100 µM
same,TGI,SK-OV-3 ovarian,> 100 µM
same,TGI,NCI-H226 lung,> 100 µM
same,TGI,DMS 273 small cell lung,> 100 µM
same,TGI,M19-MEL melanoma,> 100 µM
same,TGI,HL-60(TB) leukemia,> 100 µM
same,TGI,MOLT-4 leukemia,> 100 µM
same,TGI,SF-539 CNS,> 100 µM
same,TGI,SR leukemia,> 100 µM
same,TGI,RXF-631 renal,> 100 µM
same,TGI,OVCAR-3 ovarian,> 100 µM
same,TGI,SK-MEL-28 melanoma,> 100 µM
same,TGI,LXFL 529 NSCLC,> 100 µM
same,TGI,HCT-116 colon,> 100 µM
same,TGI,UACC-257 melanoma,> 100 µM
same,TGI,ACHN renal,> 100 µM
same,TGI,CAKI-1 renal,> 100 µM
same,TGI,UACC-62 melanoma,> 100 µM
same,TGI,CCRF-CEM leukemia,> 100 µM
same,TGI,LOX IMVI melanoma,> 100 µM
same,TGI,RPMI-8226 leukemia,> 100 µM
same,TGI,SNB-75 CNS,> 100 µM
same,TGI,M14 melanoma,> 100 µM
same,TGI,786-0 renal,> 100 µM
COC(=O)CCC(=O)Nc1cc(C)ccc1C,TGI,RXF 393 renal,> 100 µM
same,TGI,IGROV1 ovarian,> 100 µM
same,TGI,NCI-H460 lung,> 100 µM
same,TGI,SK-MEL-5 melanoma,> 100 µM
same,TGI,HOP-92 NSCLC,> 100 µM
same,TGI,KM12 colon,> 100 µM
same,TGI,TK-10 renal,> 100 µM
same,TGI,SF-295 CNS,> 100 µM
same,TGI,DLD-1 colon,> 100 µM
same,TGI,EKVX NSCLC,> 100 µM
same,TGI,NCI-H522 lung,> 100 µM
same,TGI,HT29 colon,> 100 µM
same,TGI,SW-620 colon,> 100 µM
same,TGI,A549 NSCLC,> 100 µM
same,TGI,K-562 leukemia,> 100 µM
same,TGI,NCI-H23 lung,> 100 µM
same,TGI,SK-OV-3 ovarian,> 100 µM
same,TGI,NCI-H226 lung,> 100 µM
same,TGI,SNB-78 CNS,> 100 µM
same,TGI,DMS 273 small cell lung,> 100 µM
same,TGI,COLO 205 colon,> 100 µM
same,TGI,OVCAR-4 ovarian,> 100 µM
same,TGI,M19-MEL melanoma,> 100 µM
same,TGI,HL-60(TB) leukemia,> 100 µM
same,TGI,SN12C renal,> 100 µM
same,TGI,SNB-19 CNS,> 100 µM
same,TGI,MOLT-4 leukemia,> 100 µM
same,TGI,HCC-2998 colon,> 100 µM
same,TGI,SF-539 CNS,> 100 µM
same,TGI,A498 renal,> 100 µM
same,TGI,RXF-631 renal,> 100 µM
same,TGI,OVCAR-3 ovarian,> 100 µM
same,TGI,SK-MEL-28 melanoma,> 100 µM
same,TGI,SK-MEL-2 melanoma,> 100 µM
same,TGI,LXFL 529 NSCLC,> 100 µM
same,TGI,HCT-116 colon,> 100 µM
same,TGI,UACC-257 melanoma,> 100 µM
same,TGI,ACHN renal,> 100 µM
same,TGI,CAKI-1 renal,> 100 µM
same,TGI,UO-31 renal,> 100 µM
same,TGI,UACC-62 melanoma,> 100 µM
same,TGI,CCRF-CEM leukemia,> 100 µM
same,TGI,LOX IMVI melanoma,> 100 µM
same,TGI,HOP-18 NSCLC,> 100 µM
same,TGI,HOP-62 NSCLC,> 100 µM
same,TGI,RPMI-8226 leukemia,> 100 µM
same,TGI,DMS 114 small cell lung,> 100 µM
same,TGI,XF 498 CNS,> 100 µM
same,TGI,U251 CNS,> 100 µM
same,TGI,SNB-75 CNS,> 100 µM
same,TGI,M14 melanoma,> 100 µM
same,TGI,MALME-3M melanoma,> 100 µM
same,TGI,786-0 renal,> 100 µM
same,TGI,OVCAR-8 ovarian,> 100 µM
CC(C)(C)[Si](C)(C)O/N=C\c1cccc(O[Si](C)(C)C(C)(C)C)c1,TGI,OVCAR-5 ovarian,35 µM
same,TGI,RXF 393 renal,37.4 µM
same,TGI,IGROV1 ovarian,34.9 µM
same,TGI,NCI-H460 lung,32.6 µM
same,TGI,HCT-15 colon,35.7 µM
same,TGI,SK-MEL-5 melanoma,34.2 µM
same,TGI,KM20L2 colon,38.8 µM
same,TGI,HOP-92 NSCLC,28.8 µM
same,TGI,KM12 colon,32.2 µM
same,TGI,TK-10 renal,49.8 µM
same,TGI,SF-295 CNS,31.9 µM
same,TGI,DLD-1 colon,33.6 µM
same,TGI,EKVX NSCLC,36.9 µM
same,TGI,HT29 colon,31 µM
same,TGI,SW-620 colon,34.7 µM
same,TGI,A549 NSCLC,37.4 µM
same,TGI,K-562 leukemia,35.4 µM
same,TGI,SF-268 CNS,38.5 µM
same,TGI,SK-OV-3 ovarian,36.2 µM
same,TGI,SNB-78 CNS,30.8 µM
same,TGI,DMS 273 small cell lung,32.6 µM
same,TGI,COLO 205 colon,33.1 µM
same,TGI,OVCAR-4 ovarian,34.2 µM
same,TGI,M19-MEL melanoma,34.6 µM
same,TGI,HL-60(TB) leukemia,36.8 µM
same,TGI,SN12C renal,36.6 µM
same,TGI,SNB-19 CNS,36.6 µM
same,TGI,MOLT-4 leukemia,36.8 µM
same,TGI,HCC-2998 colon,34.7 µM
same,TGI,SF-539 CNS,46.7 µM
same,TGI,OVCAR-3 ovarian,29.8 µM
same,TGI,SK-MEL-2 melanoma,35.3 µM
same,TGI,LXFL 529 NSCLC,29.1 µM
same,TGI,HCT-116 colon,34.1 µM
same,TGI,UACC-257 melanoma,46.2 µM
same,TGI,ACHN renal,32 µM
same,TGI,CAKI-1 renal,42.2 µM
same,TGI,UO-31 renal,29.6 µM
same,TGI,UACC-62 melanoma,32.4 µM
same,TGI,CCRF-CEM leukemia,41.7 µM
same,TGI,LOX IMVI melanoma,35.5 µM
same,TGI,HOP-18 NSCLC,42.3 µM
same,TGI,HOP-62 NSCLC,38.9 µM
same,TGI,RPMI-8226 leukemia,37.4 µM
same,TGI,DMS 114 small cell lung,35.6 µM
same,TGI,XF 498 CNS,32.7 µM
same,TGI,U251 CNS,31.4 µM
same,TGI,SNB-75 CNS,31.8 µM
same,TGI,M14 melanoma,29.4 µM
same,TGI,MALME-3M melanoma,62.1 µM
same,TGI,786-0 renal,35.1 µM
same,TGI,OVCAR-8 ovarian,39.6 µM
